In ChEMBL document CHEMBL1143631, “On the binding of indeno[1,2-c]isoquinolines in the DNA-topoisomerase I cleavage complex” (J Med Chem, 2005):
Active and inactive are the calls of the source. No cut-off for these calls is given here.

Target: T1, DNA topoisomerase 1 (Homo sapiens) (UniProt P11387)
T1 sequence (whole entry): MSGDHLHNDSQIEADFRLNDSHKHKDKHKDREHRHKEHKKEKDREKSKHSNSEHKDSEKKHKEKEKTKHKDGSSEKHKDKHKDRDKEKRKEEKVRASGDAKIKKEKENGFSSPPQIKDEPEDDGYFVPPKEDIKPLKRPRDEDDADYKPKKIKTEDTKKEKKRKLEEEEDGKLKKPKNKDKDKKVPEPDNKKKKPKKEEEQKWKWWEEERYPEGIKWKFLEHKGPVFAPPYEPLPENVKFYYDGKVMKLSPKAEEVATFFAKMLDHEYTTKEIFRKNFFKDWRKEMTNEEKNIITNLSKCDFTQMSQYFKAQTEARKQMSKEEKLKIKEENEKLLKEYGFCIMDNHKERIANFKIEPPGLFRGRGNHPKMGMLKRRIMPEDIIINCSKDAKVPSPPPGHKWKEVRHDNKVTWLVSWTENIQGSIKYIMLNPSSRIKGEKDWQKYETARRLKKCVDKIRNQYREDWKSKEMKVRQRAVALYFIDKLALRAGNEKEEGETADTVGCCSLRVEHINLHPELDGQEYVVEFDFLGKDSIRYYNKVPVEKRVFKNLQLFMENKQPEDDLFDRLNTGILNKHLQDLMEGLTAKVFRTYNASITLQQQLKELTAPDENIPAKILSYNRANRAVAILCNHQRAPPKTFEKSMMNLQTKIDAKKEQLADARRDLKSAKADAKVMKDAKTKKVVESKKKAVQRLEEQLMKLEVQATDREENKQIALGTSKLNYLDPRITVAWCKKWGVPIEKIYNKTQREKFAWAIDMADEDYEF
Assay: Inhibitory activity against DNA-Topoisomerase I

inhibition | Structure (SMILES)
inactive | O=C1c2cc3c(cc2-c2c1c1ccccc1c(=O)n2CCCCl)OCO3
inactive | Nc1ccc2c3c(n(CCCCl)c(=O)c2c1)-c1cc2c(cc1C3=O)OCO2
